These results are taken from patent publication US11925643B2, “Toll-like receptor 4 (TLR4) inhibitors and use thereof” (MOR RESEARCH APPLICATIONS LTD., priority 2018, dated 2024).

“Also recorded” adds a separate entry of the source.

For data set [1], the system named is C57BL mice. In words: Survival after ischemia induction (MI mice model). In kind it is in vivo. As to conditions: 0.3 mg/kg 1 hour after ischemia induction; 7 days; 12 mice. As to the method: (§1) Mice were anesthetized (with a mixture of 100 mg/kg ketamine and 10 mg/kg xylazine), intubated and ventilated with air until spontaneous breathing commenced. The left anterior descending artery (LAD) was ligated with one single stitch, forming an ischemia that can be observed almost immediately. By closing the LAD, no further blood flow is permitted in that area, while the surrounding myocardial tissue is almost not affected. This surgical procedure imitates the pathobiological and pathophysiological aspects occurring in infarction-related myocardial ischemia.
(§2) Real time reverse transcriptase PCR (RT-qPCR) was conducted to identify the effect of a disclosed decoy peptide on TLR-mediated induction of the inflammatory cytokine TNF-α. The effect of an exemplary decoy peptide PM6 (0.3 mg/kg; administered 1 hour after MI induction) on TNF-α mRNA expression in mice myocardium was assessed 24 h and 7 days after ischemia induction.
On the other hand, 5 out of 12 untreated mice died, which accounts for a survival rate of 58% after ischemia for the untreated mice.

A further data set deals with TNF-α mRNA. The experiment in a line: TNF-α mRNA in mouse myocardium by RT-qPCR after ischemia. As to conditions: 0.3 mg/kg 1 hour after MI induction. In kind it is in vivo, mice. As to the method:
Real-time RT-PCR experiments were performed in duplicates on an ABI 7900 instrument (Applied Biosystems™) using Taqman™ Master Mix (Applied Biosystems™). The average threshold cycles (Ct) of the duplicates were used to calculate the relative expression levels of the following genes: TLR4 (Applied Biosystems™ assay primer ID: Mm00569848_m1 Tlr4), TLR2 (assay primer ID: Mm01769726_m1 Tlr2), TNF-α (assay primer ID: Mm00443260_g1 Tnf) and IL-1β (assay primer ID: Mm00434228_m1 II1b) in vitro and in vivo following hypoxia or ischemia, respectively. The reference gene was TBP and the primer used was derived from mouse TATA-box binding protein (Applied Biosystems™ assay primer ID: Mm00446973_m1 Tbp). Amounts of TLR2, TLR4, TNF-α and IL-1β mRNAs in each sample were calculated relative to TBP mRNA, based on the corresponding Cts, as Relative Quantity (RQ) values, and normalized taking as 1 a randomly selected sample of the control group (TBP mRNA). […]
as §2

In data set [2] the test system is C57BL mice. The experiment in a line: Serum markers CK, LDH, troponin and GOT after LAD ligation. In kind it is in vivo. As to the method:
(§3) Male wild type mice (C57BL) were purchased from Harlan™ (Jerusalem, Israel). Mice were grown in a temperature-controlled atmosphere, 12/12 hours light/dark cycle and given standard food and tap water. The experiments were performed on 2-3-month-old male mice. All experiments were carried out in accordance with the guidelines of the Animal Care and Use Committee of Tel Aviv University with the Guide for the Care and Use of Laboratory Animals published by the US National Institutes of Health.
as §1
Blood was drawn out from the mice and immediately centrifuged at […] for 10 minutes to isolate the serum, which was obtained from the top portion of the test tube. The serum was mixed with double distilled water (DDW) in a ratio of 1:10 and was ready for assaying. Various markers were observed (CK, LDH & troponin) to determine cardiac damage in the serum.
A dose response experiment was conducted using the experiment design of the pilot experiment. PM6 was given to mice in three doses: 0.05, 0.30 and 1.00 mg/kg. Blood levels of four serum markers were assessed. The levels of three markers CK, LDH and troponin were correlated with MI severity. Troponin is a complex of three regulatory proteins that is integral to muscle contraction in skeletal muscle and cardiac muscle, and serves as a highly specific marker for myocardial infarction or heart muscle cell death. The level of the fourth marker GOT was used as an indicator for liver functions.

In data set [3] the test system is C57BL mice. In words: Heart infarct size after LAD ligation (MI mice model). In kind it is in vivo. As to the method:
as §3, §1
Hearts of mice from tested groups were isolated, and pictures were taken to determine the extent of infarct relative to total area of the left ventricle to thereby determine the extent of cardio-protection by an exemplary decoy peptide. The viable heart sections were put in a 1% solution of 2,3,5-triphenyl tetrazolium chloride (TTC) in phosphate buffer for 10 min at 37° C. TTC stained the viable tissue in red while necrotic tissue remained discolored. Sections were fixed overnight in 4% formaldehyde to enhance the contrast between stained and unstained tissue. The sections were then placed between two cover slips and digitally photographed using a Nikon Coolpix 5000 camera, at a resolution of 1400×960 pixels, and quantified by using ImageJ software. The area of ischemia/infarction (TTC-negative) was presented as a percentage of the entire area of the section.
Myocardial infarction (MI) in animals may be mimicked by a procedure called left anterior descending artery (LAD) ligation, described in Materials and Methods above. A pilot dose response experiment was first conducted. Decoy peptide represented by compound PM6 (0.5, 1.0 and 5.0 mg/kg) or aqueous solution of 40% polyethylene glycol (PEG 600) were administered intravenously (IV) to C57BL mice, 1 hour before LAD ligation. All mice were kept under standard animal facility conditions for 24 hours. The heart infarct size was measured in all three groups.

Where [4] appears, read: 0.3 mg/kg IV 1 hour before LAD ligation.

As for `CCCCCCCCNc1nc(=O)n(Cc2ccccc2)cc1C` [PM6, 1-benzyl-5-methyl-4-(octylamino)pyrimidin-2(1H)-one], in the data set on C57BL mice [1], the survival rate was 100%. Also, the “TNF-α mRNA level in myocardium” value in the data set with TNF-α mRNA (24 h) and with TNF-α mRNA (7 days) was “significant reduction” each time. Besides, the “serum CK level” value in the data set with C57BL mice [2] (setting [4]) is listed as “significantly reduced; also recorded: significant reduction”. Besides, the “serum LDH level” value in the data set on C57BL mice [2] (setting [4]) is given as “significantly reduced; also recorded: significant reduction”. Besides, the serum troponin level result in the data set on C57BL mice [2] (setting [4]) is recorded as “significantly reduced; also recorded: significant reduction”. In addition, the “GOT level (liver function)” value in the data set with C57BL mice [2] (0.05, 0.30 and 1.00 mg/kg IV 1 hour before LAD ligation) is on record as “did not affect”. In addition, the heart infarct size entry with C57BL mice [3] (0.05 mg/kg IV 1 hour before LAD ligation) is “significantly reduced”; in the data set with C57BL mice [3] (0.30 mg/kg IV 1 hour before LAD ligation) it was “significantly reduced; also recorded: significantly effective”; in the data set on C57BL mice [3] (1.00 mg/kg IV 1 hour before LAD ligation), “significantly reduced”. Further, the infarct size result with C57BL mice [3] (0.3 mg/kg IV 1 hour after ligation, 7 days) is given as “significantly reduced”; with C57BL mice [3] (pilot, 0.5 mg/kg IV 1 hour before LAD ligation, 24 hours), “significant effect”.
